# Literature values as cited in patent US20250263624A1, “Environmentally friendly metal cutting oil with high load-bearing and high anti-wear properties” (Shenyang Peite Technology Co., Ltd, priority 2025, published 2025).
compound,measurement,value
CC(C)CCCCCOC(=O)CCCCCCCCC(=O)OCCCCCC(C)C [diisooctyl sebacate],Water solubility,Insoluble
